According to patent publication EP0023093A1, “Penicillanic acid derivatives, their preparation and their pharmaceutical compositions with a penicillin or cephalosporin” (BEECHAM GROUP PLC, priority 1979, dated 1981):

Experiments:
Type in all cases: cell-based
Staph Russell = assay: standard MIC test, compound alone and in combination with ampicillin
Proteus C889 = assay: as above
[1] = test system: 7 cephalosporinase - producing E. coli strains; assay: standard MIC test, cephaloridine with synergist; settings: Escherichia coli, read-out: Geometric Mean (MIC)
Excerpt: A composition of sodium 6β-methanesulphonyloxypenicillanate and cephaloridine against 7 cephalosporinase - producing E. coli strains results in the following MIC's in a standard test.

[2] = substance alone (the 1st table)
[3] = substance alone (the 2nd table)

With `CC1(C)S[C@@H]2[C@H](NC(=O)[C@H](N)c3ccccc3)C(=O)N2[C@H]1C(=O)O` [Ampicillin] the MIC (Staph Russell; [2]) was 62.5 µg/mL, the MIC (Staph Russell; [3]) was 250 µg/mL and the MIC (Proteus C889; [2]) was 1000 µg/mL. The MIC (Proteus C889; [3]) was > 2000 µg/mL.

Compound `CC1(C)S[C@@H]2[C@H](OS(C)(=O)=O)C(=O)N2[C@H]1C(=O)O` [Sodium 6β-methanesulphonyloxypenicillanate] has an MIC (Staph Russell; [2]) of 4 µg/mL and an MIC (Proteus C889; [2]) of 62.5 µg/mL.

`O=C(Cc1cccs1)N[C@@H]1C(=O)N2C(C(=O)[O-])=C(C[n+]3ccccc3)CS[C@H]12` [Cephaloridine] showed an MIC [1] of 152 µg/mL.

For `CC1(C)S[C@@H]2[C@H](OS(=O)(=O)c3ccc(Br)cc3)C(=O)N2[C@H]1C(=O)O` [Calcium 6β-p-bromobenzenzsulphonyloxypenicillanate], the MIC (Staph Russell; [3]) was 16 µg/mL and the MIC (Proteus C889; [3]) was > 500 µg/mL.
